# Measurements published in patent US20200129592A1, “COMPOSITION FOR TREATING STROKE AND METHOD FOR SCREENING THE SAME” (CHA University Industry-Academic Cooperation Foundation, priority 2018, published 2020).
# Tests used:
# Format in all cases: cell-based, mouse
# Raw 264.7 cells [1] = test: Inhibition of p-CREB with KG501, IL-1ra ELISA in Raw 264.7 cells; details: KG501 2, 5, 10 μM pretreatment 45 min, then hUMSCs-CM with LPS 200 ng/ml
# Experimental: Raw 264.7 cells (2×10^5) were seeded onto the plate, and incubated for 24 hrs. The cells were pretreated with a serum-free medium containing KG501 (2 μM, 5 μM, and 10 μM, Sigma-Aldrich, MO) for 45 min. The supernatant was then removed from the dish, and the cells were treated with hUMSCs-CM in the presence of LPS (200 ng/ml). The supernatant was used for IL-1ra ELISA analysis. Independent experiments were triplicated on different days.
# (§1) IL-1β and IL-1ra levels were measured in supernatants of Raw 264.7 cells using commercially available ELISA kits (IL-1β Quantikine ELISA and IL-1 ra Quantikine ELISA kits, R&D Systems, MN).
# Raw 264.7 cells [2] = test: IL-1β and IL-1ra ELISA in supernatants of Raw 264.7 cells; details: LPS alone
# Experimental: A mouse macrophage cell line (Raw 264.7 cell, ATCC, VA) was cultured according to the manufacturer's instructions. The raw 264.7 cells were treated with either LPS (100 ng/ml, Sigma-Aldrich, MO) or LPS together with hUMSCs-CM for 24 hrs, and the supernatants were isolated from each treated group.
# as §1
# Raw 264.7 cells [3] = test: Knockdown of CREB by siRNA in Raw 264.7 cells
# Experimental: After Raw 264.7 cells (2×10^5) were plated in 6-well plates, transfection with 100 nM of CREB siRNA (siCREB) and control (siCtr) was performed for 48 hrs using Lipofectamine 3000 reagent (Invitrogen, MA) according to the manufacturer's instructions. The siCREB (sense: 5′-[…]-3″, antisense: 5′-[…]-3″) and siCtr (sense: 5-ACGUGACACGUUCGGAGAA-3′, antisense: 5′-UUCUCCGAACGUGUCACGU-3″) were purchased from Genolution Pharmaceuticals, Inc. After transfection, the RNA and proteins were isolated and used for PCR and western blotting, respectively.
compound,measurement,setting,value
O=C(Nc1ccc(Cl)cc1)c1cc2ccccc2cc1OP(=O)(O)O [KG501],increase of IL-1ra expression by hUMSCs-CM treatment,Raw 264.7 cells [1],inhibited in a CREB inhibitor dose-dependent manner
lipopolysaccharide [LPS],IL-1ra level in Raw 264.7 cells,Raw 264.7 cells [2],strongly elevated
same,IL-1β level in Raw 264.7 cells,Raw 264.7 cells [2],strongly elevated
"siCREB: CREB siRNA, sense 5′-CCACAAAUCAGAUUAAUUUUU-3″, antisense 5′-AAAUUAAUCUGAUUUGUGGUU-3″ (chemistry not given here)",enhanced expression of IL1RN induced by hUMSCs-CM,"Raw 264.7 cells [3]; LPS-stimulated Raw 264.7 cells, knockdown of CREB",reduced
same,expression of IL-1ra protein in Raw 264.7 cells,"Raw 264.7 cells [3]; transfection with 100 nM siCREB, 48 hrs",reduced
